Key:
[1] = test system: thapsigargin (Tg)-induced Ca^2+ entry (SOCE) in Jurkat, U937, Luva, RBL-2H3, HL-60 and HEK-293 cells; assay: Thapsigargin-induced SOCE Fura-2 bioassay in various cell types (FIG. 1); assay type: cell-based; conditions: 1 μM, positive control, all tested cell types
Description: A Fura-2 calcium flux assay was used to determine cytoplasmic Ca^2+ levels. Briefly, cells were preloaded with Fura-2 AM, and fluorescence intensity in cells intensity was measured over time as a ratio of detected 510 nm fluorescent light emission intensity when excited by UV light at 340 nm and 380 nm wavelengths (f340/f380 ratio). Gadolinium (Gd^3+) is known to block SOCE at a concentration of 1 μM and was used at 1 μM as a positive control in these experiments (gray line).

kidney cell-line model = conditions: background statement; cited from earlier work
UUO mice = conditions: background statement; cited from earlier work
SOCE in Jurkat T cells = assay: SOCE Fura-2 bioassay in Jurkat cells; assay type: cell-based, human; conditions: for IC50: Homo sapiens, read-out: IC50 SOCE, purified cannabinoids, Jurkat, Table 5
[2] = test system: SOCE in THP-1 human monocytes; assay: SOCE Fura-2 bioassay in THP-1 cells; conditions: for IC50: Homo sapiens, THP-1, read-out: IC50 SOCE, purified cannabinoids
[3] = test system: SOCE in HEK-293 human embryonic kidney cells; assay: SOCE Fura-2 bioassay in HEK293 cells; assay type: cell-based; conditions: Homo sapiens, HEK293, read-out: IC50 SOCE, purified cannabinoids, HEK-293; Table 5
[4] = test system: SOCE in U937 human monocytes; assay: SOCE Fura-2 bioassay in U937 cells; conditions: Homo sapiens, U-937, read-out: IC50 SOCE, purified cannabinoids, U937; Table 5
Description: (§1) Briefly, SOCE inhibition experiments were performed as described in Example 8, using each of the hemp extracts listed below and in Tables 6A and 6B at six concentrations each in each of the five cell types listed above to obtain dose response curves, as shown in FIGS. 11A-11SS. […] All data are averages of three independent runs±SEM. […] Hemp extracts used in FIGS. 11A-11SS are: Sour Space Candy (SSC), Hawaiian Haze (HH), Special Sauce (SS), Suver Haze (SH), White CBG (WCBG), Elektra (ELEK), Cherry Wine (CW), Lifter (LIF), Grape Soda (GS).

[5] = test system: SOCE in Luva human mast cells; assay: SOCE Fura-2 bioassay in Luva cells; conditions: Homo sapiens, Mast cell, read-out: IC50 SOCE, purified cannabinoids, Luva; Table 5
Description: as §1

[6] = test system: SOCE in RBL-2H3 rat mast cells; assay: SOCE Fura-2 bioassay in RBL-2H3 cells; conditions: Rattus norvegicus, RBL-2H3, read-out: IC50 SOCE, purified cannabinoids, RBL-2H3; Table 5
Description: as §1

Compound	effect on Tg-induced SOCE (f340/f380 ratio) [1]	cell proliferation in a kidney cell-line model (kidney cell-line model)	progression of kidney damage and fibrosis in the UUO mouse model (UUO mice)	IC50 (SOCE in Jurkat T cells)	IC50 [2]	IC50 [3]	IC50 [4]	IC50 [5]	IC50 [6]	combinatory effect on SOCE inhibition when paired with CBGA (isobolographic analysis) (SOCE in Jurkat T cells; pairs expected to inhibit 50%, FIGS. 10A-10T)	combinatory effect when paired with 2.2 μM CBGA ([2]; THP-1, 10 μM cannabinoid + 2.2 μM CBGA, FIG. 10Z)	effect on SOCE Ca^2+ signals, pure compounds (SOCE in Jurkat T cells; 10 μM, 1 μM thapsigargin, FIG. 7A, 7C)
[Cl][Gd]([Cl])[Cl] [Gd^3+, Gadolinium Chloride]	inhibited SOCE	–	–	–	–	–	–	–	–	–	–	–
c1ccc2c(c1)CCC[C@H]2Nc1nc2ccccc2[nH]1 [NS8593]	–	inhibit cell proliferation	ameliorates the progression of kidney damage and fibrosis	–	–	–	–	–	–	–	–	–
CCCc1cc(O)c2c(c1)OC(C)(C)[C@@H]1CCC(C)=C[C@@H]21 [THCV, trimethyl-3-propyl-6a,7,8,10a-tetrahydro-6H-benzo[c]chromen-1-ol]	–	–	–	10.7 µM	> 50 µM	> 50 µM	> 50 µM	> 50 µM	> 50 µM	–	–	–
CCCCCc1cc(O)c2c(c1)OC(C)(C)[C@@H]1CC=C(C)C[C@@H]21 [Δ8-THC, (6aR,10aR)-6,6,9-trimethyl-3-pentyl-6a,7,10,10a-tetrahydro-6H-benzo[c]chromen-1-ol]	–	–	–	14.2 µM	> 50 µM	> 50 µM	> 50 µM	39.7 µM	> 50 µM	sub-additive	sub-additive	–
CCCCCc1cc(O)c2c(c1)OC(C)(C)[C@@H]1CCC(C)=C[C@@H]21 [Δ9-THC, (6aR,10aR)-6,6,9-trimethyl-3-pentyl-6a,7,8,10a-tetrahydro-6H-benzo[c]chromen-1-ol]	–	–	–	> 50 µM	> 50 µM	> 50 µM	> 50 µM	0.97 µM	> 50 µM	–	–	low to no effects

From US20230091336A1, “CANNABINOID COMPOSITIONS” (priority 2020, published 2023)
